Test results taken from patent US20110184068A1, “USE OF (HALOBENZYLOXY) BENZYLAMINO-PROPANAMIDES FOR THE MANUFACTURE OF MEDICAMENTS ACTIVE AS SODIUM AND/OR CALCIUM CHANNEL SELECTIVE MODULATORS” (Newron Pharmaceuticals S.p.A., priority 2004, published 2011).

Experiments:
[1] = biological target: T1, MAO-B (Rattus norvegicus, UniProt P19643); assay: In vitro MAO-B enzyme activity assay (radioenzymatic, 14C-phenylethylamine); format: biochemical; settings: rat brain crude mitochondrial fraction; 30 min preincubation; concentration inhibiting 90% enzyme activity
T1 construct: Membrane preparations (crude mitochondrial fraction); from tissue; host or cells: rat brain, crude mitochondrial fraction
T1 sequence (P19643 1-520): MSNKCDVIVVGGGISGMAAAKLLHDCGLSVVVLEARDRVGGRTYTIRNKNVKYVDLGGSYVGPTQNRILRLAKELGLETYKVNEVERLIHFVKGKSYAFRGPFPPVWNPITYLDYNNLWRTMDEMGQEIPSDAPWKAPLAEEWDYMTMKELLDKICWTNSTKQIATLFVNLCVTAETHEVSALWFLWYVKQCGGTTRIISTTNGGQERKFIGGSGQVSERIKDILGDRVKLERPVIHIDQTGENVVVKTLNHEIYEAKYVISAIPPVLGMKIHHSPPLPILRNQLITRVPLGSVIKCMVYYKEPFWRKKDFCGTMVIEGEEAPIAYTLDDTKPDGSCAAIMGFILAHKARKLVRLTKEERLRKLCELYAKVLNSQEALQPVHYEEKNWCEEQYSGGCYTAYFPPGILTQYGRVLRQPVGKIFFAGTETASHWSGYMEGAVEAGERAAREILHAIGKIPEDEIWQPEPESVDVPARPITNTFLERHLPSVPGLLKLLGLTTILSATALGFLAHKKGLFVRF
Description: In Vitro MAO-B Enzyme Activity Assay
Membrane preparations (crude mitochondrial fraction): male Wistar rats (Harlan, Italy-175-200 g) were sacrificed under light anaesthesia and brains were rapidly removed and homogenized in 8 vol. of ice-cold 0.32 M sucrose buffer containing 0.1 M EDTA, pH 7.4. The crude homogenate was centrifuged at 2220 rpm for 10 min and the supernatant recovered. The pellet was homogenized and centrifuged again and the two supernatants were pooled and centrifuged at 9250 rpm for 10 min, +4° C. The pellet was resuspended in fresh buffer and centrifuged at 11250 rpm for 10 min, +4° C. The resulting pellet was stored at −80° C. until use.
In vitro enzyme activity assay: the enzyme activities were assessed with a radioenzymatic assay using the selective substrate ^14C-phenylethylamine (PEA) for MAO-B.
The mitochondrial pellet (500 μg protein) was resuspended in 0.1M phosphate buffer pH 7.4 and 500 μl was added to 50 μl of the test compound or buffer for 30 min at 37° C. (preincubation) then the substrate (50 μl) was added. The incubation was carried out for 10 min at 37° C. (^14C-PEA, 0.5 μM).
The reaction was stopped by adding 0.2 ml HCl or perchloric acid. After centrifugation, the deaminated metabolites were extracted with 3 ml of toluene and the radioactive organic phase measured by liquid scintillation spectrometry at 90% efficiency. Radioactivity in the eluate indicates the production of neutral and acidic metabolites formed as a result of MAO-B activity.
The enzymatic activity was expressed as nmoles of substrate transformed/mg protein/min. The activity of MAO-B in the sample was expressed as a percentage of control activity in the absence of inhibitors after subtraction of appropriate blank values.
The drug inhibition curves were obtained from at least eight different concentrations, each in duplicate (10^−10 to 10^−5 M) and the IC90 values (the drug concentration inhibiting 90% enzyme activity) with confidence intervals determined using linear regression analysis. (aided-computer program).
To reach a significant increase in neurotransmitter levels, MAO-B enzyme activity has to be blocked at least by 90%.

[2] = biological target: T2, N-type calcium channels (Homo sapiens, UniProt Q00975); assay: Calcium influx assay (fluorescence, differentiated IMR32 cells with nifedipine); format: cell-based; settings: 1 μM nifedipine, 100 mM KCl depolarization, read-out: Ca 2+ N-Type IC50
T2 construct: IMR32 preferentially express on the membrane surface N-type calcium channels; endogenous in cells; host or cells: IMR32 human neuroblastoma cells, differentiated with dibutyryl-cAMP and bromodeoxyuridine
Description: Under differentiating conditions, IMR32 preferentially express on the membrane surface N-type calcium channels. The remaining L-type calcium channels were blocked using the selective L type blocker, nifedipine. In these experimental conditions, only N type channels can be detected.
IMR32 cells were differentiated using 1 mM dibutyryl-cAMP and 2.5 μM bromodeoxyuridine for 8 days (4 times) in 225 cm^2 flask, then detached, seeded at 200,000 cells/well on 96 polylysine-coated plates and further incubated for 18-24 h in the presence of differentiating buffer before use.
The Ca^2+ Kit Assay (Molecular Devices), based on a fluorescent calcium indicator 485-535 nm wavelength, was used.
Differentiated cells were incubated with dye loading for 30 min at 37° C. then, nifedipine alone (1 μM) or in the presence of w-conotoxin or test compounds were added for further 15 min.
The fluorescence (485-535 nm) was measured before and after (30-40 sec) the automated injection of 100 mM KCl depolarizing solution using a Victor plate reader (Perkin Elmer).
The inhibition curves were calculated from 5 concentrations, each in triplicate, and the IC50 determined using a linear regression analysis.
The activity on N-type Calcium channel, expressed as IC50 of the (R)-isomer of this invention and the comparison compounds is reported in Table I.

[3] = biological target: T3, Na channel Nav 1.3 (Homo sapiens, UniProt Q9NY46); assay: Electrophysiological assay, tonic block, two electrodes voltage clamp in Xenopus oocytes; format: cell-based; settings: depolarized (-40 mV, half max current availability) condition, read-out: Nav 1.3 Dep. Curr IC50
T3 construct: expressed in transfected cells; host or cells: Xenopus laevis oocytes injected with Nav1.3 cRNA
T3 sequence (Q9NY46 whole entry): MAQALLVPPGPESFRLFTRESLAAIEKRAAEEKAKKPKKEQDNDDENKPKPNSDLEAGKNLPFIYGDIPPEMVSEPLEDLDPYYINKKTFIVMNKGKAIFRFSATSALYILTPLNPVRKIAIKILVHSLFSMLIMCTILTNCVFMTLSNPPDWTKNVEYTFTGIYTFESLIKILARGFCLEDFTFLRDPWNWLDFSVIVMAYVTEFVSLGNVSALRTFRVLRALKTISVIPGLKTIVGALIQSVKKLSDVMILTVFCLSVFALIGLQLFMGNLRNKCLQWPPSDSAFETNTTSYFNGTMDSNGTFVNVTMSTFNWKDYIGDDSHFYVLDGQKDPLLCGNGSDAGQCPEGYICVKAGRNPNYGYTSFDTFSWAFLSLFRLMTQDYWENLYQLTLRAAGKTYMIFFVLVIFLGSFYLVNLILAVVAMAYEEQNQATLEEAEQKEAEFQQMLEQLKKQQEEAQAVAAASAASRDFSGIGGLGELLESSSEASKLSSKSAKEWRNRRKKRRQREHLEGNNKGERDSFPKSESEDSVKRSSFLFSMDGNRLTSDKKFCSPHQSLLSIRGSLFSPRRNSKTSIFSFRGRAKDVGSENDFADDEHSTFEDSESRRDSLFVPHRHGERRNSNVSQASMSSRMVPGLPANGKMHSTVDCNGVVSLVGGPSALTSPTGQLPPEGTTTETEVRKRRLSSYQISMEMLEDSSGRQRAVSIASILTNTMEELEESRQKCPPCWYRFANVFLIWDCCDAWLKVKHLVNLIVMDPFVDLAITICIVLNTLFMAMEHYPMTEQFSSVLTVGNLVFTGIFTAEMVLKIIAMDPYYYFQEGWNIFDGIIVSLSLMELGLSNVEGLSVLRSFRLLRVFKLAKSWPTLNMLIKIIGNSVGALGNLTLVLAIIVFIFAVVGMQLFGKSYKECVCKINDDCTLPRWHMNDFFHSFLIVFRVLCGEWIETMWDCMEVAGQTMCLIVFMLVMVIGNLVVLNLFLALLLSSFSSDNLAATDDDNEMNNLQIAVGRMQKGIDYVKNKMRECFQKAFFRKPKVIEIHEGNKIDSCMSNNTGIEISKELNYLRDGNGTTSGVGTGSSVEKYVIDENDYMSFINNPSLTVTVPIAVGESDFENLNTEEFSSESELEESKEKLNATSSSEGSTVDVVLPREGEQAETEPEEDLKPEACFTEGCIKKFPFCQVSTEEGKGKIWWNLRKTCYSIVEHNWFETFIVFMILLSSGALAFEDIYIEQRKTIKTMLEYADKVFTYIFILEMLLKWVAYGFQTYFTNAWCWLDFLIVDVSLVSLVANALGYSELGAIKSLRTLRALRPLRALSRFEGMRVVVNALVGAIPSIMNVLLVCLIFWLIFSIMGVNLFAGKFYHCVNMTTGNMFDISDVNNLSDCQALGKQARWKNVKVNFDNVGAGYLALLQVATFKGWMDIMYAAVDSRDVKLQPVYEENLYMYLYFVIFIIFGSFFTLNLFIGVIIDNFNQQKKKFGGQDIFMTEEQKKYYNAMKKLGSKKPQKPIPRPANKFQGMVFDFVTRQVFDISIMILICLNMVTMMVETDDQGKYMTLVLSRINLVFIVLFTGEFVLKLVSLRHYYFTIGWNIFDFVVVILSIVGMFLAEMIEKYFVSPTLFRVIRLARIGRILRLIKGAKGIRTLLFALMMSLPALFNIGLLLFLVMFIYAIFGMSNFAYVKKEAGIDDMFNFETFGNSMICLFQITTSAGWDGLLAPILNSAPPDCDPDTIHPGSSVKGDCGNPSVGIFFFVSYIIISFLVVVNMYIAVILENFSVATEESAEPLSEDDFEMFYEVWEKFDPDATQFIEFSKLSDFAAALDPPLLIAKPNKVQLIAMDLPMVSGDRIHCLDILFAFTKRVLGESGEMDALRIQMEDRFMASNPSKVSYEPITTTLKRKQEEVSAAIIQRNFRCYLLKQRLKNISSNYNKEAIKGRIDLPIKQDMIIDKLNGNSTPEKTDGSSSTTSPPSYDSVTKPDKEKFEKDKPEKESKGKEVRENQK
Description: Electrophysiological Assay
Experiments for the determination of the tonic block are carried out on isolated Xenopus oocytes expressing the Na channel Nav 1.3. Currents are recorded using the two electrodes voltage clamp (TEVC) technique
The day after the preparation, the oocytes are injected (Drummond Nanoject) with 20 ng Nav1.3 cRNA and maintained in NDE.
Starting from 48 h after the mRNA injection whole cell currents are recorded using a two-microelectrode voltage clamp automated workstation.
Compounds are prepared in stock solutions (20 mM) and dissolved to the final concentrations in the external bath solution.
The current/voltage (I/V) relationship for the Nav1.3 currents expressed in oocytes was first studied in order to determine the membrane potential evoking the maximal activation.
The steady-state inactivation properties of the Nav1.3 currents were then studied in order to determine the membrane potentials for the resting state (Vrest) at which channel availability is maximal (Imax), and the membrane potential for the half maximal inactivation (V ½) producing half of the max current availability (I ½) respectively. This two voltage conditions were then used for the evaluation of the voltage dependence of the tonic block.
Finally a two-step protocol was used to determine the voltage dependence of the block of Nav1.3: the oocytes were clamped at −80 mV, the currents were activated by a 100 ms step pulse to 0 mV (Vtest) from a 3000 ms preconditioning potential at −80 mV (resting, Imax condition) and −40 mV (depolarized, I ½ condition), respectively.
Current amplitudes in the two conditions were recorded in the absence and in the presence of different concentrations of compound (washout was made in between) in order to determine the concentration-inhibition curves and IC50 values for the tonic block in the depolarized (half max current availability) conditions.
The activity on Nav 1.3 sodium channel, expressed as IC50 of the (R)-isomers of this invention and of the comparison compounds is reported in Table I.

[4] = system: mice; assay: Mice formalin test; format: in vivo; settings: 20 mg/kg p.o. 15 min before formalin; cumulative licking time, late phase 30-40 min, vs control group
Description: According to a modified protocol from Rosland et al., (1990) mice were injected subcutaneously (s.c.) with 20 μL of 2.7% solution of formalin into the plantar surface of left hindpaw and placed immediately into clear PVC observation chambers (23×12×13 cm).
The test compound (20 mg/kg) was administered p.o. 15 min before formalin injection in a volume of 10 ml/kg body weight to groups of 10 mice per dose. Control group was treated with vehicle.
Pain behavior was quantified by counting the cumulative licking time (seconds) of the injected paw with formalin. Measurements were taken during the late phase 30-40 min after formalin injection (Tjolsen et al 1992).
The analgesic effect of the compounds was calculated as the % of inhibition of the cumulative licking time respect the control group.

CC(NCc1ccc(OCc2ccccc2F)cc1)C(N)=O (single isomer, unassigned; isomer 2) [2-[4-(2-fluorobenzyloxy)benzylamino]-propanamide S isomer, 2-[4-(2-fluorobenzyloxy)benzylamino]-propanamide]
IC90 [1]: 28.4 µM | IC50 [2]: 23 µM | IC50 [3]: 202 µM | FORMALIN TEST % inibition [4]: 79%

CNC(=O)C(C)NCc1ccc(OCc2ccccc2Cl)cc1 (single isomer, unassigned; isomer 2) [2-[4-(2-chlorobenzyloxy)benzylamino]-N-methyl-propanamide S isomer, 2-[4-(2-chlorobenzyloxy)benzylamino]-N-methyl-propanamide]
IC90 [1]: 2.8 µM | IC50 [2]: 30 µM | IC50 [3]: 210 µM | FORMALIN TEST % inibition [4]: 32%

CS(=O)(=O)O.C[C@@H](NCc1ccc(OCc2ccccc2F)cc1)C(N)=O [2-[4-(2-fluorobenzyloxy)benzylamino]-propanamide R isomer, (R)-2-[4-(2-fluorobenzyloxy)benzylamino]propanamide methanesulfonate]
IC90 [1]: 2500 µM | IC50 [2]: 29.2 µM | IC50 [3]: 149 µM | FORMALIN TEST % inibition [4]: 80%

CS(=O)(=O)O.C[C@@H](NCc1ccc(OCc2cccc(Cl)c2)cc1)C(N)=O [2-[4-(3-chlorobenzyloxy)benzylamino]-propanamide R isomer, (R)-2-[4-(3-chlorobenzyloxy)benzylamino]propanamide methanesulfonate]
IC90 [1]: 32.3 µM | IC50 [2]: 20 µM | IC50 [3]: 39 µM | FORMALIN TEST % inibition [4]: 39%

CNC(=O)[C@@H](C)NCc1ccc(OCc2ccccc2Cl)cc1.CS(=O)(=O)O [2-[4-(2-chlorobenzyloxy)benzylamino]-N-methyl-propanamide R isomer, (R)-2-[4-(2-chlorobenzyloxy)benzylamino]-N-methylpropanamide methanesulfonate]
IC90 [1]: 122 µM | IC50 [2]: 8.4 µM | IC50 [3]: 38 µM | FORMALIN TEST % inibition [4]: 49%

CC(NCc1ccc(OCc2cccc(Cl)c2)cc1)C(N)=O (single isomer, unassigned; isomer 2) [2-[4-(3-chlorobenzyloxy)benzylamino]-propanamide S isomer, 2-[4-(3-chlorobenzyloxy)benzylamino]-propanamide]
IC90 [1]: 1.64 µM | IC50 [2]: 94 µM | IC50 [3]: 79 µM | FORMALIN TEST % inibition [4]: 45%
